The values that follow come from patent US20100048555A1, “IMIDAZOTHIAZOLE DERIVATIVES AS MARK INHIBITORS” (priority 2006, published 2010).

In the first test the target is T1, MARK3 (Homo sapiens, UniProt P27448).
T1 construct: purchased University of Dundee
T1 sequence (P27448 whole entry, species assumed): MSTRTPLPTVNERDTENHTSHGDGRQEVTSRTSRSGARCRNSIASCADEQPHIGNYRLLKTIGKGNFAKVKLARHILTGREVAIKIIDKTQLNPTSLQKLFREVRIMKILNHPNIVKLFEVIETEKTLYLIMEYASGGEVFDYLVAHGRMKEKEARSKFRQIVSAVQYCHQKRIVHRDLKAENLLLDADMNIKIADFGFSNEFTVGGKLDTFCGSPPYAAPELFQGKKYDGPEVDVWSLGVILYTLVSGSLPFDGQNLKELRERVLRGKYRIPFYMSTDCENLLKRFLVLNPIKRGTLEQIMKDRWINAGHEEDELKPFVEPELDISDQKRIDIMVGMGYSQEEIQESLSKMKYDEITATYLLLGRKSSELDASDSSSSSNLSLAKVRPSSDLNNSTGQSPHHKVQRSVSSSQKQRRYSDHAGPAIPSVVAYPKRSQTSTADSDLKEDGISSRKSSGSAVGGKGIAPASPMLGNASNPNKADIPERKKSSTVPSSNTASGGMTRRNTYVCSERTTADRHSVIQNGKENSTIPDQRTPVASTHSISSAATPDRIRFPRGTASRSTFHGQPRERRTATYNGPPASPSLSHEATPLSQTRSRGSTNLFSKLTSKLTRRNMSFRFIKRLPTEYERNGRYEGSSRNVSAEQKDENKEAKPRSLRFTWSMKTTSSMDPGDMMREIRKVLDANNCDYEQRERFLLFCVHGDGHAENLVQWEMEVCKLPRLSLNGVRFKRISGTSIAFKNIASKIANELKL
As to the kind of experiment: MARK 3 Assay (HTRF, Cdc25C biotinylated peptide substrate). It counts as biochemical. Particulars: recombinant MARK3 enzyme, 10 μM ATP, 1 μM peptide substrate. The method, then:
MARK3 activity was assayed in vitro using a Cdc25C biotinylated peptide substrate (Cell Signalling Technologies). The phosphopeptide product was quantitated using a Homogenous Time-Resolved Fluorescence (HTRF) assay system (Park et al., 1999, Anal. Biochem. 269:94-104). The reaction mixture contained 50 mM HEPES/Tris-HCl, pH 7.4; 10 mM NaCl, 5 mM MgCl2, 0.2 mM NaVO4, 5 mM β-glycerol phosphate, 0.1% Tween-20, 2 mM dithiothreitol, 0.1% BSA, 10 μM ATP, 1 μM peptide substrate, and 10 nM recombinant MARK3 enzyme (University of Dundee) in a final volume of 12 μl. The buffer additionally contained protease inhibitor cocktail (Roche EDTA-free, 1 tab per 50 ml). The kinase reaction was incubated for 2 hours at 25° C., and then terminated with 3 μl Stop/Detection Buffer (50 mM HEPES, pH 7.0, 16.6 mM EDTA, 0.5M KF, 0.1% Tween-20, 0.1% BSA, 2 μg/ml SLX^ent 665 (CISBIO), and 2 μg/ml Eu^3+ cryptate label antibody (CISBIO)). The reaction was allowed to equilibrate overnight at 0° C., and relative fluorescent units were read on an HTRF enabled plate reader (e.g. TECAN GENios Pro). Inhibitor compounds were assayed in the reaction described above to determine compound IC50s. Aliquots of compound dissolved in DMSO were added to the reaction wells in a third-log dilution series covering a range of 1 nM to 10 μM. Relative phospho substrate formation, read as HTRF fluorescence units, was measured over the range of compound concentrations and a titration curve generated.
For orientation: TR-FRET usually uses a lanthanide donor and a delayed reading to cut background.
The IC50 is the concentration that gives 50% inhibition. For the compound `O=C(Nc1ncn2c(C(F)(F)F)csc12)c1ccc(OCCN2CCCCC2)cc1` [Example 12, 4-(2-Piperidin-1-ylethoxy)-N-[3-(trifluoromethyl)imidazo[5,1-b][1,3]thiazol-7-yl]benzamide], the IC50 is less than 0.1 µM. As for `O=C(Nc1ncn2c(C(F)(F)F)csc12)c1ccc(CN2CCOCC2)cc1` [Example 16, 4-(Morpholin-4-ylmethyl)-N-[3-(trifluoromethyl)imidazo[5,1-b][1,3]thiazol-7-yl]benzamide], the IC50 is 0.1 to 0.5 µM. In the case of `O=C(Nc1ncn2c(C(F)(F)F)csc12)c1ccc(CN2CCCCC2)cc1` [Example 17, 4-(Piperidin-1-ylmethyl)-N-[3-(trifluoromethyl)imidazo[5,1-b][1,3]thiazol-7-yl]benzamide], the 50% inhibitory concentration (IC50) lay in the range of 0.1 to 0.5 µM. On the same count and under the same terms, the figure for `O=C(Nc1ncn2c(C(F)(F)F)csc12)c1ccc(F)cc1` [Example 1, 4-Fluoro-N-[3-(trifluoromethyl)imidazo[5,1-b][1,3]thiazol-7-yl]benzamide] is 0.1 to 0.5 µM; for `CN1CCN(Cc2ccc(C(=O)Nc3ncn4c(C(F)(F)F)csc34)cc2)CC1` [Example 18, 4-[(4-methylpiperazin-1-yl)methyl]-N-[3-(trifluoromethyl)imidazo[5,1-b][1,3]thiazol-7-yl]benzamide] it is 0.1 to 0.5 µM. Consider `CN1CCN(c2ccc(C(=O)Nc3ncn4c(C(F)(F)F)csc34)cc2)CC1` [Example 8, 4-(4-Methylpiperazin-1-yl)-N-[3-(trifluoromethyl)imidazo[5,1-b][1,3]thiazol-7-yl]benzamide], for which the IC50 is less than 0.1 µM. As for `O=C(Nc1ncn2c(C(F)(F)F)csc12)c1ccc(Cl)cc1` [Example 7, 4-Chloro-N-[3-(trifluoromethyl)imidazo[5,1-b][1,3]thiazol-7-yl]benzamide], the half-inhibitory concentration (IC50) lay within 0.1 to 0.5 µM. In the case of `O=C(Nc1ncn2c(C(F)(F)F)csc12)c1ccc(CO)cc1` [Example 14, 4-(Hydroxymethyl)-N-[3-(trifluoromethyl)imidazo[5,1-b][1,3]thiazol-7-yl]benzamide], the IC50 was in the range of 0.1 to 0.5 µM.

On to `O=C(Nc1ncn2c(C(F)(F)F)csc12)c1ccc(N2CCOCC2)cc1` [Example 9], for which the IC50 is 0.1 to 0.5 µM.

The same test, now with this note: recombinant MARK3 enzyme, 10 μM ATP, range given with mixed units (500 nM to 1 μM), units kept in the value.
Take `O=C(Nc1ncn2c(C(F)(F)F)csc12)c1cccc(OCCN2CCCCC2)c1` [Example 13, 3-(2-Piperidin-1-ylethoxy)-N-[3-(trifluoromethyl)imidazo[5,1-b][1,3]thiazol-7-yl]benzamide]: the IC50 lay within 0.5 to 1 µM. For `O=C(Nc1ncn2c(C(F)(F)F)csc12)c1ccc(CO)cc1` [Example 14, 4-(Hydroxymethyl)-N-[3-(trifluoromethyl)imidazo[5,1-b][1,3]thiazol-7-yl]benzamide], the IC50 fell in the range of 0.5 to 1 µM.

With `CN1CCN(c2ccc(C(=O)Nc3ncn4c(C(F)(F)F)csc34)cn2)CC1` [Example 19, 6-(4-methylpiperazin-1-yl)-N-[3-(trifluoromethyl)imidazo[5,1-b][1,3]thiazol-7-yl]nicotinamide], the IC50 lay in the range of 0.5 to 1 µM. On to `O=C(Nc1ncn2c(C(F)(F)F)csc12)c1ccc(O)cc1` [Example 2, 4-Hydroxy-N-[3-(trifluoromethyl)imidazo[5,1-b][1,3]thiazol-7-yl]benzamide], for which the IC50 lay in the range of 0.5 to 1 µM.
